Measurements as given in ChEMBL document CHEMBL5506016 (J Med Chem, 2024).
Activity calls are given as the source filed them. The rule behind the calls is not given here.

Columns and labels:
[1] = biological target: T1, ADP-sugar pyrophosphatase (Homo sapiens, UniProt Q9UKK9); set-up: species or system HEK293
[2] = biological target: T1, ADP-sugar pyrophosphatase; conditions: filed as antagonist

EC50 [1] [µM] | Activity [2] | SMILES
> 10 |  | CC#CC(=O)N1CCC[C@H]1c1nc(-c2ccc(C(=O)Nc3ccccn3)cc2)c2c(N)nccn12 [ACALABRUTINIB]
 | Active | Cn1c(=O)c2c(nc(N3CCN(CCCCN)CC3)n2Cc2nnc(-c3ccc(Cl)c(Cl)c3)o2)n(C)c1=O
> 10 |  | CC#CC(=O)N[C@H]1CCCN(c2c(F)cc(C(N)=O)c3[nH]c(C)c(C)c23)C1 [BRANEBRUTINIB]

SMILES | EC50 [1] [µM] | Activity [2]
C=CC(=O)N1CCC[C@@H](n2nc(-c3ccc(Oc4ccccc4)cc3)c3c(N)ncnc32)C1 [IBRUTINIB] | 1.23 | 
